According to patent US8410138B2, “Compounds for activating TGF-beta signaling” (The Board of Trustees of the Leland Stanford Junior …, priority 2007, dated 2013):
Read-outs that look alike come from different tables or passages of the source.

Assays:
[1] = test system: TGF-β signaling (SBE-SEAP reporter) in MFB-F11 cells; assay type: cell-based, mouse; conditions: for Relative TGF-β activity, fold change compared with vehicle: cell reporter assay
Description: All compounds were tested twice, in duplicate, using the MFB-F11 cell line. 80 compounds were selected for further study based on induction of the reporter gene in any of the replicates. These compounds were tested again in MFB-F11 or C6-H4 cells, either alone or in the presence of 100 pg/ml of TGF-β1, to test for synergistic activities.

[2] = test system: fibroblasts lacking Smad2, Smad3 or Smad4; assay: SBE reporter signaling in fibroblasts lacking elements of the TGF-β signaling pathway; assay type: cell-based; conditions: Smad2 (FIG. 2B) or Smad3 knock-out fibroblasts
From the text: To understand how the TGF-β signaling agonists function and identify molecular genetic targets in cells, fibroblasts lacking different elements of the TGF-β3 signaling pathway, including Smad2, Smad3, and Smad4, were used in combination with plasmids encoding different inhibitors of the TGF-β signaling pathway to study TGF-β agonists in different backgrounds. For reference, the canonical TGF-β signaling pathway is illustrated in FIG. 2A. The biological actions of TGF-β1 are mediated through interactions with the type 2 TGF beta receptor (TBR2) 2 and the type I TGF beta receptor (TBRI) 3. Betaglycan 4 may participate in the binding of TGF-β1. Receptor activation leads to the phosphorylation of Smad proteins, such as Smad 2/3 5 and Smad 4 6, which translocate to the nucleus 7 to bind to the Smad DNA-binding element (SBE) 8, present in numerous genes, in combination with transcription factors (TF) 9. Smad 7 10 is inhibitory with respect to Smad 2/3 5 phosphorylation. Alternative signaling involves p38 11 and the MAP kinase pathway. TAB1 12 activates TAK1 13, which activates p38 11.
Because Smad2 and Smad3 can substitute for each other, results with Smad2 or Smad3 knock-out fibroblasts were more difficult to interpret. Nonetheless, the synergistic effect of TGF-β1 and 11H was blocked in the absence of Smad2 (FIG. 2B) or Smad3 (not shown). In these assays, signaling is reported via SBE elements, which are specific elements that bind Smad proteins. Thus, the 11H compound must signal through this element. Without being limited to theory, it is believed that the 3A compound functions as a competitive agonist of Smad binding to the SBE, representing a novel target and mode of action.

[3] = test system: TGF-β reporter gene in hippocampus; assay: Luciferase activity in SBE-luc mouse hippocampus; assay type: in vivo; conditions: 30 mg/kg i.p.; five hours after injection; SBE-luc mice
Description: In another experiment performed to asses the ability of the present compounds to activate TGF-β signaling in animals, SBE-luc mice were given either PBS or the 11H compound via i.p. injections as described in Example 10. Following drug or PBS injection, mice were anesthetized with chloral hydrate and perfused with saline. Brains were dissected and snap-frozen. Hippocampal tissues were assayed for luciferase activity.
(§1) SBE-luc mice (T9-7F), 2-4 months of age, 4-5 mice per group, were given either the 11H compound at 30 mg/kg via i.p. injections, or PBS as a control. The 11H compound was completely dissolved in PBS at the concentration of 3 mg/ml. This working solution was given to mice at 10 μl/g body weight to achieve the desired level of 30 mg/kg. Five hours following drug or PBS injection, mice were anesthetized with chloral hydrate and perfused with saline. Brains were dissected and snap-frozen. Hippocampal tissues were homogenized in 100 μl of 1× luciferase assay buffer and 20 μl of the resulting supernatant was used for luciferase assays.

Dissolution in PBS = assay type: physicochemical
Description: as §1

[4] = test system: primary hippocampal neurons from E16 mouse embryos; assay type: cell-based; conditions: Aβ oligomers inducing 50-70% cell death; 13A04 3 μM, TGF-β1 10 ng/ml; 24 hours
Description: (§2) FIG. 1H is a graph showing the relative amount of surviving 6-7 DIV hippocampal neurons of E16 mice following exposure to culture medium (CM) alone, 13A04 (3 μM), or CM containing Aβ at 2 or 5 μM with TGF-β1 (10 ng/ml) or 13A04 (3 μM). After 24 hours, cultures were fixed and surviving cells were counted. Data represent mean±SEM, n=3-7 fields counted per plate. All conditions were compared to Aβ using the Mann-Whitney test (* p<0.05, ** p<0.01). FIG. 1I is a graph showing the relative gene expression levels of the indicated TGF-β-responsive genes induced in MFB-F11 fibroblasts stimulated with TGF-β1 (yellow) or 13A04 (blue) for 24 h. mRNA was extracted, labeled and hybridized to gene expression arrays tailored for the TGF-β pathway.
Moreover, the small-molecule TGF-β agonist was not toxic at 3 μM and 10 μM (not shown).
Primary mixed neuronal cultures are exposed to Aβ oligomers and treated with compounds (0 to 10 μM concentration) and cell survival is measured using lactate dehydrogenase (LDH) release or by counting 4,6-diamidino-2-phenylindole (DAPI)-stained cells. […] Neuritic dystrophy in 21 DIV neurons can also be measured by quantifying the tortuosity of neurites as described by Ferreira et al.^70 and modified by others. […] Further incubation of these cells with the present compounds provides a sensitive assay for neuroprotection.

[5] = test system: TGF-β-responsive genes in MFB-F11 fibroblasts; assay: Microarray of TGF-β pathway gene expression in tgfb1−/− fibroblasts; assay type: cell-based, mouse; conditions: 1, 5, 24 hours
Description: as §2
A microarray assay was used to identify changes in gene expression caused by stimulating tgfb1^−/− fibroblasts with TGF-β1 or 13A04. mRNA was harvested 1, 5, and 24 hours following stimulation of tgfb1^−/− fibroblasts with TGF-β1 (or control) and analyzed for differential expression of 128 genes related to TGF-β signaling, using a commercially available filter array (Superarray Bioscience Corp.; FIG. 1I). […]

[6] = test system: TGF-β signaling (SBE-luc reporter) in brain; assay: Bioluminescence and tissue luciferase in SBE-luc reporter mice; assay type: in vivo, mouse; conditions: i.p. or s.q. injection; FIG. 3D
From the text: Transgenic mice harboring the SBE-luc reporter gene were generated and used to test the present compositions in vivo. These “reporter mice” mice express SBE-luc (i.e., “the transgene”) in all cells of the body.^1,54 Intraperitoneal injection of luciferin into SBE-luc mice produces bioluminescence generated by luciferase and photons penetrating the skull can be imaged using sensitive camera systems.^1,54
To determine whether 3A and its analogs are bioactive in vivo and able to penetrate the blood brain barrier (BBB), TGF-β1, 3A, 22B02, or 13A04 were injected into reporter mice i.p. or s.q. The animals were then sacrificed at the indicated times following injection. […] There was no obvious activation of the reporter in other organs.
Bioactivity data were confirmed by biochemical measurements of tissue luciferase in hippocampal homogenates (FIG. 3E).
Two-month old SBE-luciferase transgenic mice receive different concentrations of a test compound either s.q., i.p., or orally by gavage. […] Following administration of the test or control compounds, mice are injected with luciferin i.p. At, e.g., 2, 8, and 16 hours following injection of luciferin, the mice are imaged to detect bioluminescence as described above. Brains may be harvested 16 hours following test compound injection, and may be divided sagittally. […]

[7] = test system: TGF-β signaling in hippocampal neurons; assay: RFP immunohistochemistry in SBE-lucRT reporter mice; assay type: in vivo, mouse
From the text: To study TGF-β signaling at the cellular level, additional reporter mice were generated, which express a fusion protein consisting of luciferase, red fluorescent protein […], and thymidine kinase (TK) under control of the SBE promoter (i.e., SBE-lucRT mice).

Aβ deposition = assay: APP-T41 mice treated for 10 days, Aβ immunostaining; assay type: in vivo; conditions: 5-month-old APP-T41 mice, i.p. for 10 days
Description: In a further experiment, a group of 5-month-old APP-T41 mice were treated with vehicle or 13A04 (i.p.) for 10 days. At this age, the mice are starting to deposit Aβ which can be quantified in brain sections using Aβ immunostaining.
Transgenic mice that overproduce FAD-mutant human APP reproduce important aspects of AD, including amyloid plaques, neurodegeneration, and cognitive deficits. APP-T41 mice which overexpress APP751^V717I, K670M/N671L in neurons develop amyloid pathology, neurodegeneration, and cognitive deficits.^43,44 Mice overexpressing human tau protein associated with familial forms of fronto-temporal dementia (a dementia characterized by extensive tangle formation) develop neurofibrillary tangles similar to the ones observed in AD and suffer from locomotor deficits around 10 months of age.^45 APP-T41 and Prp-tau^P301L mice^45 can be used to determine the in vivo efficacy of test compounds in treating AD-like diseases.
Compounds can also be tested for their ability to reverse cognitive deficits.

HDAC 1 and 2 = conditions: read-out: 1050 (HDAC 1 and 2 inhibition); cited from earlier work
[8] = test system: HDAC activity in HeLa nuclear extracts (HDAC 1, HDAC 2, SIRT 1); conditions: FIG. 8B
From the text: A commercially available assay was used to measure HDAC inhibitory activity of the present small-molecule compounds.

**Q.** What does the source list for `C/C(=C\c1ccccc1)CN(CC1CCNCC1)C(=O)NC1CCCCC1` [Compound 11H, (E)-3-cyclohexyl-1-(2-methyl-3-phenylallyl)-1-(piperidin-4-ylmethyl)urea]?
**A.** TGF-β agonist activity ([1]; data of FIGS. 1A-1J): TGF-β-agonists; Synergistic effect with TGF-β1 in the absence of Smad2 or Smad3 [2]: blocked; Activation of the TGF-β reporter gene in hippocampi compared to PBS [3]: twice the levels; Concentration completely dissolved in PBS (Dissolution in PBS): ≥ 3 mg/mL

**Q.** With `CC(C)CN(CC(=O)N(CCc1c[nH]c2ccccc12)Cc1ccccc1)C(=O)c1ccco1` [Compound 13A04] as the molecule, how does the “Relative TGF-β activity, fold change compared with vehicle” value (shortened to “Relative TGF-β activity, fold change”) ([1]; 3 μM) read?
**A.** 2.5 fold

**Q.** And the “Relative TGF-β activity, fold change” value ([1]; 10 μM)?
**A.** 6.3 fold

**Q.** What about the “Relative TGF-β activity, fold change” value ([1]; 30 μM) of the same molecule?
**A.** 17.6 fold

**Q.** And the “Relative TGF-β activity, fold change” value ([1]; 100 μM)?
**A.** 20.9 fold

**Q.** What about the “Protection of neurons against Aβ toxicity (survival)” value [4] of the same molecule?
**A.** consistently protected neurons and increased survival

**Q.** What about the “Expression of TGF-β signaling genes (Fos, Jun, Myc, Smad1, Smad2, Smad3, Interleukin-6)” value [5] of the same molecule?
**A.** induced

**Q.** What about the “Reporter activation (bioluminescence) in living mice” value [6] of the same molecule?
**A.** dose-dependent manner

**Q.** What about the “TGF-β signaling in the vasculature” value [7] of the same molecule?
**A.** No activation

**Q.** What about the “Reporter gene and TGF-β signaling in hippocampal neurons” value ([7]; RFP immunohistochemistry) of the same molecule?
**A.** activates the reporter gene and TGF-β signaling in hippocampal neurons

**Q.** What about the “Tolerability / side effects” value (Aβ deposition) of the same molecule?
**A.** well tolerated and no side effects were observed

**Q.** And the “Aβ deposition versus controls” value (Aβ deposition; not statistically significant)?
**A.** trend towards reduced Aβ deposition

**Q.** For `N#Cc1ccc(-c2ccc(OCCCCCCC(=O)NO)cc2)cc1` [Compound A-161906], which IC50 (HDAC 1 and 2) is on record?
**A.** 9 nM

**Q.** With trichostatin A as the molecule, how does the “Reduction of HDAC activity” value [8] read?
**A.** > 90%
